Laboratory results published in PubChem BioAssay (NCI).
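The compound was tested at five concentrations on cells cultured in 96-well plates, with a 48-hour exposure period. At the TGI there is no net growth.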

Experiments:
Experiment in all cases: NCI anticancer screen, dose series, 48 h
HCT-116 colon = system: HCT-116 colon
HCT-15 colon = system: HCT-15 colon
HL-60(TB) leukemia = system: HL-60(TB) leukemia
HOP-92 NSCLC = system: HOP-92 NSCLC
HT29 colon = system: HT29 colon
NCI-H460 lung = system: NCI-H460 lung
NCI-H522 lung = system: NCI-H522 lung
OVCAR-8 ovarian = system: OVCAR-8 ovarian
RXF 393 renal = system: RXF 393 renal
SF-295 CNS = system: SF-295 CNS
SK-MEL-2 melanoma = system: SK-MEL-2 melanoma
SK-MEL-28 melanoma = system: SK-MEL-28 melanoma
SNB-75 CNS = system: SNB-75 CNS
UO-31 renal = system: UO-31 renal
BT-549 breast = system: BT-549 breast
DU-145 prostate = system: DU-145 prostate
MDA-N = system: MDA-N
NCI/ADR-RES ovarian = system: NCI/ADR-RES ovarian

SMILES | TGI (HCT-116 colon) | TGI (HCT-15 colon) | TGI (HL-60(TB) leukemia) | TGI (HOP-92 NSCLC) | TGI (HT29 colon) | TGI (NCI-H460 lung) | TGI (NCI-H522 lung) | TGI (OVCAR-8 ovarian) | TGI (RXF 393 renal) | TGI (SF-295 CNS) | TGI (SK-MEL-2 melanoma) | TGI (SK-MEL-28 melanoma) | TGI (SNB-75 CNS) | TGI (UO-31 renal) | TGI (BT-549 breast) | TGI (DU-145 prostate) | TGI (MDA-N) | TGI (NCI/ADR-RES ovarian)
N#C/C(=C1\SC(N=Nc2ccccc2)C(=O)N1c1ccccc1)c1nc2ccccc2[nH]1 (stereo not given) | > 100 µM | > 100 µM | > 100 µM | > 100 µM | > 100 µM | > 100 µM | > 100 µM | > 100 µM | 97.6 µM | > 100 µM | > 100 µM | > 100 µM | > 100 µM | > 100 µM | – | – | – | –
SCCSCCCSCCS | > 100 µM | > 100 µM | 45.6 µM | – | > 100 µM | > 100 µM | > 100 µM | > 100 µM | – | > 100 µM | – | > 100 µM | > 100 µM | > 100 µM | > 100 µM | > 100 µM | > 100 µM | > 100 µM
NC1=CN2c3ccccc3N(CC(=O)O)C2C=C1 (stereo not given) | > 100 µM | > 100 µM | > 100 µM | > 100 µM | > 100 µM | > 100 µM | – | > 100 µM | > 100 µM | > 100 µM | > 100 µM | > 100 µM | > 100 µM | > 100 µM | > 100 µM | > 100 µM | – | > 100 µM
COC(C)(C)C1(O)CCC(C)CC1=O (stereo not given) | > 100 µM | > 100 µM | > 100 µM | > 100 µM | > 100 µM | > 100 µM | > 100 µM | > 100 µM | > 100 µM | > 100 µM | – | > 100 µM | > 100 µM | > 100 µM | > 100 µM | > 100 µM | > 100 µM | –
C[N+]1(CCCl)CC[N+](C)(CCCl)CC1 (stereo not given) | > 100 µM | > 100 µM | > 100 µM | – | > 100 µM | > 100 µM | – | > 100 µM | > 100 µM | > 100 µM | > 100 µM | > 100 µM | > 100 µM | > 100 µM | > 100 µM | > 100 µM | > 100 µM | > 100 µM
Oc1ccc(Cl)cc1CN1CCN(Cc2cc(Cl)ccc2O)C1 | 1.34 µM | – | 7.41 µM | 5.15 µM | 13 µM | 4.96 µM | 13.2 µM | 2.21 µM | 4.14 µM | 7.73 µM | 4.45 µM | 6.78 µM | 7.59 µM | 2.19 µM | – | 11.6 µM | 6.43 µM | 1.1 µM
C=CCO[C@]1(CC=C)C(=O)C(=O)OC1C1COC(C)(C)O1 (stereo not given in full) | 74.7 µM | 42 µM | – | 41.3 µM | 37.2 µM | > 100 µM | 43.6 µM | 81.6 µM | 40.8 µM | > 100 µM | – | – | 77.2 µM | > 100 µM | – | > 100 µM | > 100 µM | > 100 µM
c1csc(C[N+]23CN4CN(CN(C4)C2)C3)c1 | > 100 µM | 77.2 µM | 33.2 µM | 44.9 µM | > 100 µM | 49.2 µM | > 100 µM | 74.9 µM | – | > 100 µM | 37.3 µM | > 100 µM | > 100 µM | > 100 µM | – | – | – | –
CC(=O)N=C1N(/C=C2\C(=O)Oc3ccccc3C2=O)C(=O)/C(=C/c2ccc(Cl)cc2Cl)N1C | > 100 µM | > 100 µM | > 100 µM | – | > 100 µM | – | > 100 µM | > 100 µM | > 100 µM | > 100 µM | > 100 µM | > 100 µM | > 100 µM | – | 62 µM | > 100 µM | – | > 100 µM
CC(C)C1=CC23CCC4C(C)(C(=O)O)CCCC4(C)C2CC1C1C(=O)N(c2ccccc2)C(=O)C13 (stereo not given) | > 100 µM | > 100 µM | > 100 µM | 97.4 µM | > 100 µM | > 100 µM | > 100 µM | > 100 µM | 76.1 µM | > 100 µM | 73.3 µM | > 100 µM | > 100 µM | > 100 µM | – | – | – | –
CCOC(=O)CNc1nc(=O)c2c(=O)oc(Cl)cc2o1 | 24.4 µM | 23.7 µM | – | 19.5 µM | 22.6 µM | 36.2 µM | 17.3 µM | 23.2 µM | – | > 100 µM | 44.5 µM | 63.7 µM | 24.7 µM | 25.4 µM | – | > 100 µM | 48 µM | 50.3 µM
CC(C)C(N)=O | > 5000 µM | > 5000 µM | > 5000 µM | > 5000 µM | > 5000 µM | > 5000 µM | > 5000 µM | > 5000 µM | > 5000 µM | > 5000 µM | > 5000 µM | > 5000 µM | > 5000 µM | > 5000 µM | – | – | – | –
Cc1cc(=O)oc2c(C)c(OCCCOc3ccc4c(C)cc(=O)oc4c3C)ccc12 | > 100 µM | > 100 µM | > 100 µM | > 100 µM | > 100 µM | > 100 µM | > 100 µM | > 100 µM | – | > 100 µM | > 100 µM | > 100 µM | – | > 100 µM | – | – | – | –
O=C1CCCCCCCCCCC1CN1CCCCC1 (stereo not given) | > 100 µM | > 100 µM | > 100 µM | – | > 100 µM | > 100 µM | > 100 µM | > 100 µM | – | > 100 µM | > 100 µM | > 100 µM | > 100 µM | > 100 µM | – | – | – | –
COc1cc2cc(C(=O)N3CC(CCl)c4c3cc(N)c3ccccc43)[nH]c2c(OC)c1OC (stereo not given) | 1.08 µM | 1.58 µM | – | 0.275 µM | 1.41 µM | – | < 0.01 µM | < 0.01 µM | < 0.01 µM | – | < 0.01 µM | – | < 0.01 µM | < 0.01 µM | – | 0.0549 µM | – | < 0.01 µM
Cc1c(C(=O)/C=C/c2ccc(N(C)C)cc2)c(=O)n(-c2ccccc2)n1C | > 100 µM | > 100 µM | – | > 100 µM | > 100 µM | > 100 µM | > 100 µM | > 100 µM | > 100 µM | > 100 µM | > 100 µM | > 100 µM | – | > 100 µM | – | – | – | –
